From ChEMBL document CHEMBL1153013, “Bio-active compounds from Euphorbia cornigera Boiss” (2009)
≈ marks a conversion by molar mass, not a printed value.

Tested on: Biomphalaria glabrata
Test: Molluscicidal activity against Biomphalaria glabrata after 24 hrs
Assay type: functional

Row | Structure (SMILES) | LC50
1 | O=C(Nc1ccc([N+](=O)[O-])cc1Cl)c1cc(Cl)ccc1O [NICLOSAMIDE] | 0.025 µg/mL (≈ 0.0764 µM)
2 | CC(=O)OCC1=C[C@@H]2C(=O)[C@]3(C=C(C)[C@H](OC(=O)c4ccccc4NC(=O)c4ccccc4N)[C@@]3(O)[C@@H]1OC(C)=O)[C@H](C)C[C@@H]1[C@H]2C1(C)C | 0.0114 µg/mL (≈ 0.017 µM)
3 | C/C=C(\C)C(=O)O[C@@H]1C(COC(=O)c2ccccc2NC(=O)c2ccccc2N)=C[C@@H]2C(=O)[C@]3(C=C(C)[C@H](OC(C)=O)[C@@]13O)[C@H](C)C[C@@H]1[C@H]2C1(C)C | 0.0155 µg/mL (≈ 0.0218 µM)
4 | C/C=C(\C)C(=O)O[C@@H]1C(COC(C)=O)=C[C@@H]2C(=O)[C@]3(C=C(C)[C@H](OC(=O)c4ccccc4NC(=O)c4ccccc4N)[C@@]13O)[C@H](C)C[C@@H]1[C@H]2C1(C)C | 0.0135 µg/mL (≈ 0.019 µM)
5 | CC(=O)O[C@H]1C(C)=C[C@]23C(=O)[C@@H](C=C(COC(=O)c4ccccc4NC(=O)c4ccccc4N)[C@@H](O)[C@]12O)[C@H]1[C@@H](C[C@H]3C)C1(C)C | 0.0192 µg/mL (≈ 0.0305 µM)
6 | C/C=C(\C)C(=O)OCC1=C[C@@H]2C(=O)[C@]3(C=C(C)[C@H](OC(C)=O)[C@@]3(O)[C@@H]1OC(=O)c1ccccc1NC(=O)c1ccccc1N)[C@H](C)C[C@@H]1[C@H]2C1(C)C | 0.0145 µg/mL (≈ 0.0204 µM)
7 | CC(=O)OCC1=C[C@@H]2C(=O)[C@]3(C=C(C)[C@H](OC(=O)c4ccccc4NC(=O)c4ccccc4N)[C@@]3(O)[C@@H]1O)[C@H](C)C[C@@H]1[C@H]2C1(C)C | 0.0143 µg/mL (≈ 0.0227 µM)
8 | C/C=C(\C)C(=O)O[C@H]1C(C)=C[C@]23C(=O)[C@@H](C=C(COC(=O)c4ccccc4NC(=O)c4ccccc4N)[C@@H](OC(C)=O)[C@]12O)[C@H]1[C@@H](C[C@H]3C)C1(C)C | 0.0615 µg/mL (≈ 0.0865 µM)
9 | C/C=C(\C)C(=O)OCC1=C[C@@H]2C(=O)[C@]3(C=C(C)[C@H](OC(=O)c4ccccc4NC(=O)c4ccccc4N)[C@@]3(O)[C@@H]1OC(C)=O)[C@H](C)C[C@@H]1[C@H]2C1(C)C | 0.0125 µg/mL (≈ 0.0176 µM)
10 | CC(=O)OCC1=C[C@@H]2C(=O)[C@]3(C=C(C)[C@H](OC(C)=O)[C@@]3(O)[C@@H]1OC(=O)c1ccccc1NC(=O)c1ccccc1N)[C@H](C)C[C@@H]1[C@H]2C1(C)C | 0.0183 µg/mL (≈ 0.0273 µM)
11 | C/C=C(\C)C(=O)O[C@H]1C(C)=C[C@]23C(=O)[C@@H](C=C(COC(C)=O)[C@@H](OC(=O)c4ccccc4NC(=O)c4ccccc4N)[C@]12O)[C@H]1[C@@H](C[C@H]3C)C1(C)C | 0.0754 µg/mL (≈ 0.106 µM)
